One experiment deals with T1, uterine OT receptors (Rattus norvegicus, UniProt P70536).
T1 construct: from tissue; host or cells: uterus of DES-treated rats, crude membranes
T1 sequence (P70536 1-388): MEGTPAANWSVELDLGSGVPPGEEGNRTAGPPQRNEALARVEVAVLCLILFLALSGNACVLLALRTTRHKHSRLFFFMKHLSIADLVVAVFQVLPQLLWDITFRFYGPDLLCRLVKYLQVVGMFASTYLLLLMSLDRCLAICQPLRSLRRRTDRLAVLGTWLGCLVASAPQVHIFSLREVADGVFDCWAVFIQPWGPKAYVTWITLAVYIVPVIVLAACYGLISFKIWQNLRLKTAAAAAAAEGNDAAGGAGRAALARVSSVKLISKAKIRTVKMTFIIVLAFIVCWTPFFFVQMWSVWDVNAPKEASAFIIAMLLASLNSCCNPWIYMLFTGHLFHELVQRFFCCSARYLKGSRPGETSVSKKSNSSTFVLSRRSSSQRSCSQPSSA
Kind of experiment: [3H]OT radioligand binding to uterine OT receptors, crude membrane preparation. On the procedure: The high affinity binding of [^3 H]OT ([tyrosyl, 3,5-[^3 H]OT; 30-60 Ci/mmol; New England Nuclear Boston, Mass.) to uterine OT receptors was based on an assay* using a crude membrane preparation of uteri taken from diethylstilbestrol dipropionate (DES)-treated (0.3 mg/kg, ip; 18-24) rats. Competition studies were conducted at equilibrium (60 min; 22° C.) using 1 nM [^3 H]OT in the following assay buffer: 50 mM Tris-HCl, 5 mM MgCl2, and 0.1% BSA, pH 7.4. Nonspecific binding (10% of the total binding) was determined using 1 μM unlabeled OT and the binding reaction was terminated by filtration through glass fiber filters using a cell harvester (model 7019, Skatron, Inc., Sterling, Va.).
*Fuchs, A-R; Fuchs, F; Soloff, MS. 1985 J. Clin. Endocrinol. Metab. 60:37.

The target of another experiment is AVP-V1 sites (Rattus norvegicus, UniProt P30560). Kind of experiment: [3H]AVP radioligand binding to male rat liver crude membrane preparation (AVP-V1 sites). The following applies: male rat liver membranes; 1 nM [3H]AVP; 30 min at 30° C.; read-out: Receptor Binding Results IC50 (nM) [^3 H]-AVP-V1. The protocol:
(§1) Nonspecific binding (5-10% of the total binding) was determined using 10 μM unlabeled AVP, and the binding reaction was terminated by filtration as described above for the [^3 H]OT binding assay.
(§2) +Butlen, D; Guillon, G; Rajerison, RM; Jard, S; Sawyer, WH; Manning, M. 1978 Mol Pharmacol 14:1006.

The target of another experiment is AVP-V2 sites (Rattus norvegicus, UniProt Q00788). Put plainly: [3H]AVP radioligand binding to rat kidney medulla crude membrane preparation (AVP-V2 sites). The following applies: rat kidney medulla membranes; 2 nM [3H]AVP; 30 min at 30° C.; read-out: Receptor Binding Results IC50 (nM) [^3 H]-AVP-V2. On the procedure:
as §1, §2

Setting [1] is: uteri of DES-treated rats, 1 nM [3H]OT, 60 min, 22° C., inhibits specific binding by 50%, read-out: Receptor Binding Results IC50 (nM) [3H]OT.

Structures can show the parent of a compound that is named as a salt. Where two headings read alike, the source gives them in different places. *1 amine or outer side, *2 acyl side, *3 side chain or, on linkers, in order; H or OH if unused. Where a SMILES comes first, the peptide text is derived from it. [ ]: non-standard residue; d: D form. X13 = CC[C@H](C)[C@H](NC(=S)[C@@H](Cc1ccccc1)N[*:1])C(=O)[*:2]; X14 = CCOC(=O)C(C(=O)OCC)C1C=NN([*:1])[C@H](C(=O)[*:2])C1; X2 = O=C([C@@H]1[C@@H](O)[C@@H](O)C=NN1[*:1])[*:2]; X6 = CN(C)C[C@H]1C=NN([*:1])[C@H](C(=O)[*:2])C1; X4 = CN(C)CCNC1C=NN([*:1])[C@H](C(=O)[*:2])C1; X8 = O=C([C@@H]1CC(N2CCCC2)C=NN1[*:1])[*:2]; X10 = O=C1CC[C@@H](C(=O)[*:2])N([*:1])N1; Piz(1,6-dehydro) = O=C(O)[C@@H]1CCC=NN1; X7 = CSC1=NN([*:1])[C@H](C(=O)[*:2])CC1; dPiz(1,6-dehydro) = O=C(O)[C@H]1CCC=NN1; X16 = CN1CCC[C@@H](C(=O)[*:2])N1[*:1]; X15 = CN1CCC[C@H](C(=O)[*:2])N1[*:1]; dNMeCha = CN[C@H](CC1CCCCC1)C(=O)O; X5 = O=C([C@@H]1CCCNN1[*:1])[*:2]; X1 = O=C([C@H]1CCCNN1[*:1])[*:2]; dNMeF = CN[C@H](Cc1ccccc1)C(=O)O; dCha = N[C@H](CC1CCCCC1)C(=O)O

AVP-V2 sites, sequence (Q00788 whole entry): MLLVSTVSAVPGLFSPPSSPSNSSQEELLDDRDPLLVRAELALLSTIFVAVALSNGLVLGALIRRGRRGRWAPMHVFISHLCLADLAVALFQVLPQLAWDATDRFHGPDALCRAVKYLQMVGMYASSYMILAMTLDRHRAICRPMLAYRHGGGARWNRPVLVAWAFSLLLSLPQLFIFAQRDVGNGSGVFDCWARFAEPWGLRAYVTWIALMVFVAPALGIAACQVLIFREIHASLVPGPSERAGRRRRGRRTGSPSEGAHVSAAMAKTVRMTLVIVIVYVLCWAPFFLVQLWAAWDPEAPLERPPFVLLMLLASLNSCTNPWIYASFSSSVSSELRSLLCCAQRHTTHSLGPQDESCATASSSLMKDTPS
AVP-V1 sites, sequence (P30560 whole entry): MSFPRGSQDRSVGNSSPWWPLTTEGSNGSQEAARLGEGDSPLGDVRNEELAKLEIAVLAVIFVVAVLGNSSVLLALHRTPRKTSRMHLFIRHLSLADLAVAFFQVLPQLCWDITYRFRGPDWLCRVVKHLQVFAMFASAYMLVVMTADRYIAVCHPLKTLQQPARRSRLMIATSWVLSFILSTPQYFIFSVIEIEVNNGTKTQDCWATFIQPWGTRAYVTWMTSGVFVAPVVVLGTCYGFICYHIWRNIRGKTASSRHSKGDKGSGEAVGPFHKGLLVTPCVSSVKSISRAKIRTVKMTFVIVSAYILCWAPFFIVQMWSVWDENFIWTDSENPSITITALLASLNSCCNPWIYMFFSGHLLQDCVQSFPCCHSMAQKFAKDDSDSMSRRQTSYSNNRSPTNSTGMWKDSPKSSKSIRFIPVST

What is called IC50 is the midpoint of a concentration-inhibition curve. `CCOC(=O)C(C(=O)OCC)C1C=NN2C(=O)[C@H]3CCC=NN3C(=O)[C@H]([C@@H](C)CC)NC(=O)[C@@H](Cc3ccccc3)NC(=O)[C@@H]3CCCN3C(=O)[C@@H](Cc3ccccc3)N(C)C(=O)[C@@H]2C1` (stereo partly drawn) [Example 17, cyclo-[D-Phenylalanyl-L-isoleucyl-D-2,3,4,5-tetrahydro-3-pyridazinecarbonyl-5-(2-ethoxy-1-(ethoxycarbonyl)-2-oxoethyl)-L-2,3,4,5,-tetrahydro-3-pyridazinecarbonyl-N-methyl-D-phenylalanyl-L-prolyl] (trifluoroacetate)] (cyclo(I[dPiz(1,6-dehydro)][X14][dNMeF]P[dF])): the concentration for half-maximal inhibition (IC50) was found to be 200 nM at uterine OT receptors (setting [1]), 3000 nM at AVP-V1 sites and 2400 nM at AVP-V2 sites.

As to `CC[C@H](C)[C@@H]1NC(=O)[C@@H](Cc2ccccc2)NC(=O)[C@@H]2CCCN2C(=O)[C@@H](Cc2ccccc2)N(C)C(=O)[C@@H]2CCC(SC)=NN2C(=O)[C@H]2CCC=NN2C1=O` [Example 5, cyclo-[D-Phenylalanyl-L-isoleucyl-D-2,3,4,5-tetrahydro-3-pyidazinecarbonyl-L-2,3,4,5-tetrahydro-6-methylthio-3-pyridazinecarbonyl-N-methyl-D-phenylalanyl-L-prolyl]] (cyclo(I[dPiz(1,6-dehydro)][X7][dNMeF]P[dF])), the concentration for half-maximal inhibition (IC50) worked out at 27 nM on uterine OT receptors (setting [1]), 820 nM on AVP-V1 sites and 1020 nM at AVP-V2 sites.

As for `CC[C@H](C)[C@@H]1NC(=S)[C@@H](Cc2ccccc2)NC(=S)[C@@H]2CCCN2C(=O)[C@@H](Cc2ccccc2)N(C)C(=O)[C@@H]2CCC=NN2C(=O)[C@H]2CCC=NN2C1=O` [Example 11, cyclo-[D-Thiophenylalanyl-L-isoleucyl-D-2,3,4,5-tetrahydro-3-pyridazinecarbonyl-L-2,3,4,5-tetrahydro-3-pyridazinecarbonyl-N-methyl-D-phenylalanyl-L-thioprolyl]], the IC50 at uterine OT receptors (setting [1]) came to 4.9 nM; at AVP-V1 sites, 200 nM; on AVP-V2 sites, 430 nM.

Take `CC[C@H](C)[C@@H]1NC(=S)[C@@H](Cc2ccccc2)NC(=O)[C@@H]2CCCN2C(=O)[C@@H](Cc2ccccc2)N(C)C(=O)[C@@H]2CCC=NN2C(=O)[C@H]2CCC=NN2C1=O` [Example 10, cyclo-[D-Thiophenylalanyl-L-isoleucyl-D-2,3,4,5-tetrahydro-3-pyridazinecarbonyl-L-2,3,4,5-tetrahydro-3-pyridazinecarbonyl-N-methyl-D-phenylalanyl-L-prolyl]] (cyclo(P[X13][dPiz(1,6-dehydro)][Piz(1,6-dehydro)][dNMeF])): the IC50 was determined as 1 nM on uterine OT receptors (setting [1]), 300 nM at AVP-V1 sites and 270 nM on AVP-V2 sites.

As for `CC[C@H](C)[C@@H]1NC(=O)[C@@H](Cc2ccccc2)NC(=O)[C@@H]2CCCN2C(=O)[C@@H](Cc2ccccc2)N(C)C(=O)[C@@H]2CCC(=O)NN2C(=O)[C@H]2CCCNN2C1=O` [Example 4, cyclo-[D-Phenylalanyl-L-isoleucyl-D-hexahydro-3-pyridazinecarbonyl-L-hexahydro-6-oxo-3-pyridazinecarbonyl-N-methyl-D-phenylalanyl-L-prolyl]] (cyclo(I[X1][X10][dNMeF]P[dF])), the IC50 at uterine OT receptors came to 217 nM; on AVP-V1 sites it was 13900 nM; on AVP-V2 sites, 18900 nM.

With `CC[C@H](C)[C@@H]1NC(=O)[C@@H](Cc2ccccc2)NC(=O)[C@@H]2CCCN2C(=O)[C@@H](Cc2ccccc2)N(C)C(=O)[C@@H]2[C@@H](O)[C@@H](O)C=NN2C(=O)[C@H]2CCC=NN2C1=O` [Example 13, cyclo-[D-Phenylalanyl-L-isoleucyl-D-2,3,4,5-tetrahydro-3-pyridazinecarbonyl-(3α,4β,5β)-4,5-dihydroxy-L-2,3,4,5-tetrahydro-3-pyridazinecarbonyl-N-methyl-D-phenylalanyl-L-prolyl]] (cyclo(I[dPiz(1,6-dehydro)][X2][dNMeF]P[dF])), the half-inhibitory concentration (IC50) at uterine OT receptors (setting [1]) is 785 nM; at AVP-V1 sites, 10000 nM; at AVP-V2 sites, > 10000 nM.

In the case of `CC[C@H](C)[C@@H]1NC(=O)[C@@H](Cc2ccccc2)NC(=O)[C@@H]2CCCN2C(=O)[C@@H](Cc2ccccc2)N(C)C(=O)[C@@H]2CC(N3CCCC3)C=NN2C(=O)[C@H]2CCC=NN2C1=O` (stereo partly drawn) [Example 15, cyclo-[D-Phenylalanyl-L-isoleucyl-D-2,3,4,5-tetrahydro-3-pyridazinecarbonyl-5-(1-pyrolidinyl)-L-2,3,4,5-tetrahydro-3-pyridazinecarbonyl-N-methyl-D-phenylalanyl-L-prolyl] trifluoroacetate] (cyclo(I[dPiz(1,6-dehydro)][X8][dNMeF]P[dF])), the concentration for half-maximal inhibition (IC50) on uterine OT receptors (setting [1]) is 600 nM; at AVP-V1 sites, 8800 nM; at AVP-V2 sites it was 11000 nM.

For the compound `CC[C@H](C)[C@@H]1NC[C@@H](Cc2ccccc2)NC(=O)[C@@H]2CCCN2C(=O)[C@@H](Cc2ccccc2)N(C)C(=O)[C@@H]2CCC=NN2C(=O)[C@H]2CCC=NN2C1=O` [Example 7, cyclo-[N-(2-Amino-3-phenylpropyl)-L-isoleucyl-D-2,3,4,5-tetrahydro-3-pyridazinecarbonyl-L-2,3,4,5-tetrahydro-3-pyridazinecarbonyl-N-methyl-D-phenylalanyl-L-prolyl]], the IC50 at uterine OT receptors (setting [1]) was 30000 nM; at AVP-V1 sites, > 30000 nM; on AVP-V2 sites, > 30000 nM.

Take `CC[C@H](C)[C@@H]1NC(=O)[C@@H](Cc2ccccc2)NC(=O)[C@@H]2CCCN2C(=O)[C@@H](Cc2ccccc2)N(C)C(=O)[C@@H]2CC(NCCN(C)C)C=NN2C(=O)[C@H]2CCC=NN2C1=O` (stereo partly drawn) [Example 16, cyclo-[D-Phenylalanyl-L-isoleucyl-D-2,3,4,5-tetrahydro-3-pyridazinecarbonyl-5-((2-dimethylamino)ethylamino)-L-2,3,4,5,-tetrahydro-3-pyridazinecarbonyl-N-methyl-D-phenylalanyl-L-prolyl] (trifluoroacetate) (High Rf isomer)] (cyclo(I[dPiz(1,6-dehydro)][X4][dNMeF]P[dF])): the values for the IC50 on uterine OT receptors (setting [1]), at AVP-V1 sites and at AVP-V2 sites were 220 nM, 930 nM and 7300 nM, respectively.

`CC[C@H](C)[C@@H]1NC(=O)[C@@H](CC2CCCCC2)NC(=O)[C@@H]2CCCN2C(=O)[C@@H](CC2CCCCC2)N(C)C(=O)[C@@H]2CCCNN2C(=O)[C@H]2CCCNN2C1=O` [Example 1, cyclo-[D-3-Cyclohexylalanyl-L-isoleucyl-D-hexahydro-3-pyridazinecarbonyl-L-hexahydro-3-pyridazinecarbonyl-3-cyclohexyl-N-methyl-D-alanyl-L-prolyl]] (cyclo(I[X1][X5][dNMeCha]P[dCha])): the IC50 came out at 725 nM on uterine OT receptors (setting [1]), 2400 nM at AVP-V1 sites and 14800 nM at AVP-V2 sites.

As for `CC[C@H](C)[C@@H]1NC(=O)[C@@H](CC2CCCCC2)NC(=O)[C@@H]2CCCN2C(=O)[C@@H](CC2CCCCC2)N(C)C(=O)[C@@H]2CCC=NN2C(=O)[C@H]2CCC=NN2C1=O` [Example 2, cyclo-[D-3-Cyclohexylalanyl-L-isoleucyl-D-2,3,4,5-tetrahydro-3-pyidazinecarbonyl-L-2,3,4,5-tetrahydro-3-pyridazinecarbonyl-3-cyclohexyl-N-methyl-D-alanyl-L-prolyl]] (cyclo(I[dPiz(1,6-dehydro)][Piz(1,6-dehydro)][dNMeCha]P[dCha])), the IC50 on uterine OT receptors (setting [1]) was found to be 94 nM.

As for `CC[C@H](C)[C@@H]1NC(=O)[C@@H](Cc2ccccc2)NC(=O)[C@@H]2CCCN2C(=O)[C@@H](Cc2ccccc2)N(C)C(=O)[C@@H]2C[C@@H](CN(C)C)C=NN2C(=O)[C@H]2CCC=NN2C1=O` [Example 18, cyclo-[D-Phenylalanyl-L-isoleucyl-D-2,3,4,5-tetrahydro-3-pyridazinecarbonyl-trans-5-(dimethylamino)methyl-L-2,3,4,5,-tetrahydro-3-pyridazinecarbonyl-N-methyl-D-phenylalanyl-L-prolyl] monoacetate] (cyclo(I[dPiz(1,6-dehydro)][X6][dNMeF]P[dF])), the values for the IC50 on uterine OT receptors (setting [1]), at AVP-V1 sites and on AVP-V2 sites were 7.8 nM, 1850 nM and 2800 nM, respectively.

Consider `CC[C@H](C)[C@@H]1NC(=O)[C@@H](Cc2ccccc2)NC(=O)[C@@H]2CCCN2C(=O)[C@@H](Cc2ccccc2)N(C)C(=O)[C@@H]2CCCN(C)N2C(=O)[C@H]2CCCN(C)N2C1=O` [Example 6, cyclo-[D-Phenylalanyl-L-isoleucyl-D-hexahydro-1-methyl-3-pyridazinecarbonyl-L-hexahydro-1-methyl-3-pyridazinecarbonyl-N-methyl-D-phenylalanyl-L-prolyl]] (cyclo(I[X15][X16][dNMeF]P[dF])), for which, on uterine OT receptors, the IC50 was determined as 6250 nM.

Source of the values: patent US5026703A, “Peptide oxytocin antagonists” (priority 1990, dated 1991).
